Patent US20110112155A1, “METHODS FOR TREATING CANCER IN PATIENTS HAVING BREAST CANCER RESISTANCE PROTEIN OVEREXPRESSION” (Bristol-Myers Squibb Company, priority 2008, published 2011)
Read-outs that look alike come from different tables or passages of the source.

Key:
[1] = system: LX-1 lung tumor xenograft overexpressing TUBB3; assay: In vivo efficacy in TUBB3 overexpressing LX-1 lung tumor xenograft; parameters: species or system human; conditions: LX-1 xenograft in nude mice, at maximum tolerated dose; activity = LCK>=1
Description: (§1) Cancer cell lines overexpressing TUBB3 were evaluated in vivo in mice for sensitivity to ixabepilone, docetaxel and vinorelbine. These include DU4475 and PAT21 breast, as well as H1155 and LX-1 lung cancer lines. BCRP overexpressing HEK-293 cell line was studied in vitro for sensitivity to ixabepilone, paclitaxel and mitoxantrone.
(§2) In vivo efficacy of ixabepilone was evaluated in TUBB3 overexpressing human breast (DU4475 and PAT21) and lung (H1155 and LX-1) tumor xenograft models • Tumor response was determined by measurement of tumors by caliper twice a week • Tumor weights were estimated using the formula
(§3) Tumor weight=(length×width2)/2 • Tumor response endpoint was expressed in terms of log cell kill (LCK) expressed as
(§4) LCK=(T−C)÷(3.32×TVDT) • T−C, the difference in the time (days) required for the treated tumors (T) to reach a predetermined target size compared with those of the control group (C)
(§5) Tumor volume doubling time=TVDT: Median time (days) for control tumors to reach target size−Median time (days) for control tumors to reach half the target size • Activity was defined as achievement of LCK≧1 • MTD—the dose level immediately above which excessive toxicity (i.e., more then one death) occurred • Statistical evaluations were performed using Gehan's generalized Wilcoxon test

[2] = system: Pat-21 breast tumor xenograft overexpressing TUBB3; assay: In vivo efficacy in TUBB3 overexpressing PAT21 breast tumor xenograft; parameters: species or system human; conditions: Pat-21 xenograft in nude mice, at maximum tolerated dose; activity = LCK>=1
Description: as §1, §2, §3, §4, §5

[3] = system: human lung carcinoma cell line, H441; assay: BCRP-overexpression dependent resistance in H441 cells; format: cell-based; conditions: FIG. 8
[4] = system: H1155 lung tumor xenograft overexpressing TUBB3; assay: In vivo efficacy in TUBB3 overexpressing H1155 lung tumor xenograft; parameters: species or system human; conditions: H1155 xenograft in nude mice, at maximum tolerated dose; activity = LCK>=1
Description: as §1, §2, §3, §4, §5

[5] = system: paclitaxel-sensitive (A2780, HCT116, LS174T) and paclitaxel-resistant (HCT116/VM46, Pat-7, A2780Tax, Pat-21) human tumor models; assay: Preclinical pharmacology studies of antitumor activity in human tumor models; format: in vivo
[6] = system: DU4475 breast tumor xenograft overexpressing TUBB3; assay: In vivo efficacy in TUBB3 overexpressing DU4475 breast tumor xenograft; parameters: species or system human; conditions: DU4475 xenograft in nude mice, at maximum tolerated dose; activity = LCK>=1
Description: as §1, §2, §3, §4, §5

BCRP = assay: Cell growth assay in BCRP overexpressing HEK293 cells; format: cell-based; conditions: human, HEK293 cells overexpressing BCRP (HEK293/BCRP); HEK293/BCRP cells, cell growth by cell counting
Description: as §1
(§6) Compounds and reagents. Ixabepilone, docetaxel and mitoxantrone were solubilized in 100% DMSO at 10 mg/ml for in vitro studies.
(§7) Cell culture: HEK and HEK/BCRP cells were maintained in RPMI-1640 (Gibco) supplemented with 10% heat-inactivated fetal bovine serum and 25 mM HEPES at 37° C./5% CO2.
(§8) Cell growth assays. Cell growth assays were conducted in 6-well culture plates. Cells were plated at a density of 4×10^4 cells/well overnight. Compounds were then added (total DMSO content not exceeding 0.1%). Cell growth was determined by the direct counting of cell number, following trypsinization, using a Coulter Channelyzer.

[7] = system: BCRP overexpressing HEK293/BCRP cell line; assay: as above; format: cell-based
Description: as §1, §6, §7, §8

[8] = system: 4 xenografts overexpressing TUBB3 (DU4475, PAT21, H1155, LX-1); assay: In vivo efficacy across the 4 human tumor xenografts overexpressing TUBB3; conditions: range across 4 TUBB3 overexpressing xenografts in nude mice, at MTD
Description: as §1, §2, §3, §4, §5

[9] = system: BCRP overexpressing cells; assay: Detection of BCRP overexpressing cells by Hoescht 33342 dye and flow cytometry; format: cell-based; conditions: flow cytometry, FIG. 7
From the text: Determination of BCRP Expression by Flow Cytometry.
Cells were acquired using CellQuest Pro on a FACSCalibur (BD) and analyzed using FlowJo software.

[10] = HEK293/BCRP in comparison with the vector-transfected control line

Structure (SMILES): C/C(=C\c1csc(C)n1)[C@@H]1C[C@@H]2O[C@]2(C)CCC[C@H](C)[C@H](O)[C@@H](C)C(=O)C(C)(C)[C@@H](O)CC(=O)N1 [Ixabepilone, (1S,3S,7S,10R,11S,12S,16R)-7,11-dihydroxy-8,8,10,12,16-pentamethyl-3-[(1E)-1-methyl-2-(2-methyl-4-thiazolyl)ethenyl]-17-oxa-4-azabicyclo[14.1.0]heptadecane-5,9-dione]
- Antitumor Efficacy (LCK) [1]: 2.6 LCK
- Antitumor Efficacy (LCK) [2]: 1.6 LCK
- ability to overcome BCRP-overexpression dependent resistance to taxanes [3]: increased ability
- Antitumor Efficacy (LCK) [4]: 4.2 LCK
- oral efficacy ([5]; oral administration, comparable to parenteral administration): orally efficacious
- antitumor activity ([5]; paclitaxel-sensitive and paclitaxel-resistant human colon, ovarian and breast tumor models): very impressive and broad spectrum of antitumor activity
- Antitumor Efficacy (LCK) [6]: 2.6 LCK
- IC50 (BCRP): 4.1 nM
- resistance factor [7]: 1.9 fold

Structure (SMILES): O=C1c2c(O)ccc(O)c2C(=O)c2c(NCCNCCO)ccc(NCCNCCO)c21 [mitoxantrone]
- IC50 (BCRP): 26.4 nM
- resistance factor [7, 10]: 4.1 fold

Structure (SMILES): CCC1=C[C@@H]2CN(C1)Cc1c([nH]c3ccccc13)[C@@](C(=O)OC)(c1cc3c(cc1OC)N(C)[C@H]1[C@@](O)(C(=O)OC)[C@H](OC(C)=O)[C@]4(CC)C=CCN5CC[C@]31[C@@H]54)C2 [Vinorelbine, vinorelbine]
- Antitumor Efficacy (LCK) [1]: 0.1 LCK
- Antitumor Efficacy (LCK) [2]: 0.3 LCK
- Antitumor Efficacy (LCK) [4]: 0.1 LCK
- Antitumor Efficacy (LCK) [6]: 0.2 LCK
- antitumor efficacy, range over the 4 xenografts [8]: 0.1-0.3 LCK

Structure (SMILES): CC(=O)O[C@H]1C(=O)[C@@]2(C)[C@H]([C@H](OC(=O)c3ccccc3)[C@]3(O)C[C@H](OC(=O)[C@H](O)[C@@H](NC(=O)c4ccccc4)c4ccccc4)C(C)=C1C3(C)C)[C@]1(OC(C)=O)CO[C@@H]1C[C@@H]2O [paclitaxel]
- IC50 (BCRP): 8.7 nM
- resistance factor [7, 10]: 9.8 fold

Structure (SMILES): CC(=O)O[C@@]12CO[C@@H]1C[C@H](O)[C@@]1(C)C(=O)[C@H](O)C3=C(C)[C@@H](OC(=O)[C@H](O)[C@@H](NC(=O)OC(C)(C)C)c4ccccc4)C[C@@](O)([C@@H](OC(=O)c4ccccc4)[C@H]21)C3(C)C [Docetaxel, docetaxel]
- Antitumor Efficacy (LCK) [1]: 0.5 LCK
- Antitumor Efficacy (LCK) [2]: 0.3 LCK
- Antitumor Efficacy (LCK) [4]: 0.2 LCK
- Antitumor Efficacy (LCK) [6]: 0.9 LCK
- antitumor efficacy, range over the 4 xenografts [8]: 0.2-0.9 LCK

Structure (SMILES): COc1ccc2c3c([nH]c2c1)[C@H](C=C(C)C)N1C(=O)[C@@H]2CCCN2C(=O)[C@@H]1C3 [fumitremorgin C]
- effect on BCRP overexpressing cells detected with Hoescht 33342 dye [9]: abolition of BCRP overexpressing cells
- reversal of BCRP-mediated resistance to paclitaxel and mitoxantrone ([7]; HEK293/BCRP cells): reversed
